Series [1] deals with T1, ΔImpα3 (importin α3 without the IBB domain, residues 64-521) (Homo sapiens, UniProt O00629).
T1 construct: The His-tagged ΔImpα3 (residues 64-521) was obtained from BL21 (DE3) cells as described; His-tag; made in house; host or cells: Escherichia coli BL21 (DE3)
T1 sequence (O00629 64-521): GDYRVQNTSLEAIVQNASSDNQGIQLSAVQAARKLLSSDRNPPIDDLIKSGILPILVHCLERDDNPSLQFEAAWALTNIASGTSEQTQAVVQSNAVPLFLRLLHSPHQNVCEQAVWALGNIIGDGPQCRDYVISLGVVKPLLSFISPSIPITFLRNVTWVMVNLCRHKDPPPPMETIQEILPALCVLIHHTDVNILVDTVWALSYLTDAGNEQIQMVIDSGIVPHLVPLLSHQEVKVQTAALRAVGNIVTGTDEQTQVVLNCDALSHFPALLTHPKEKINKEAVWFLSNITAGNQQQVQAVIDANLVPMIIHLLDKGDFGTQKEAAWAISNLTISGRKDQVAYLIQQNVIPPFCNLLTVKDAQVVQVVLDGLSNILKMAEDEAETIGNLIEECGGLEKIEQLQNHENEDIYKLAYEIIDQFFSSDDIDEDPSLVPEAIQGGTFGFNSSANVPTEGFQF
Nature of the series: ITC binding of NLS-NUPR1 peptides / NUPR1 to ΔImpα3. The note with it: ITC, 298 K; for ΔH (binding enthalpy), ΔImpα3: absolute error 0.5 kcal/mol; for −TΔS (entropic contribution), ΔImpα3: calculated from Kd and ΔH, absolute error 0.7 kcal/mol; for n (stoichiometry; fraction of binding-competent protein), ΔImpα3: absolute error 0.2, value in parenthesis = fixed in the fit due to low affinity. The procedure: (§1) The experimental set-up and data processing of ITC experiments has been described previously. Calorimetric titrations, performed in an Auto-iTC200 calorimeter (MicroCal, Malvern-Panalytical, Malvern, UK) consisted of series of 19 2-μL injections, with 150 s time spacing and a 750-rpm stirring speed. Impα3 or ΔImpα3 (at 10–20 μM) was loaded into the calorimetric cell and NLS-NUPR1 peptides in the syringe (150–300 μM); all solutions were prepared in buffer Tris 50 mM, pH 8. […] The binding affinity (association constant) and the binding enthalpy were estimated through a least-squares nonlinear regression data analysis, from which the Gibbs energy and the entropic contribution to the binding were calculated using well-known thermodynamic relationships. Since the binding stoichiometry is constrained by the model, the parameter n provides a fraction of the active or binding competent protein. Experiments for each peptide and importin species were performed, at least, in duplicates.

Series [2] in a line: Translational diffusion by NMR DOSY (hydrodynamic properties). The series is classed as physicochemical. The note with it: for D, translational diffusion coefficient: 283 K, pH 7.2, 50-mM deuterated Tris, 100% D2O, peptide 120 μM; for Rh, hydrodynamic radius from D: from the translational diffusion coefficient of dioxane (Rh = 2.12 Å) added to each sample. The procedure:
Concentrations of peptides in all DOSY experiments were 120 μM, and 128 scans, where the gradient strength was varied, were acquired for each curve. Translational self-diffusion measurements were performed with the pulsed gradient spin-echo sequence in the presence of 100% D2O. Experimental details have been described elsewhere. Briefly, the gradient strength was varied in sixteen linear steps between 2% and 95% of the total power of the gradient coil. The gradient strength was previously calibrated by using the value of the translational diffusion coefficient, D, for the residual proton water line in a sample containing 100% D2O in a 5-mm tube [34]. In our experiments for each peptide, the duration of the gradient was 2.25 ms, the time between the two pulse gradients in the pulse sequence was set to 200 ms, and the recovery delay between the bipolar gradients was set to 100 μs. The methyl groups with signals between 1.0 and 0.80 ppm were used for integration. Fitting of the exponential curves obtained from experimental data was carried out with KaleidaGraph (Synergy Software, Version 3.5), as described. A final concentration of 1% of dioxane, which was assumed to have a hydrodynamic radius Rh = 2.12 Å [34], was added to the solutions of each of the peptides to have a comparison for estimating their sizes.

In series [3] the target is T2, human importin α3 (Impα3) (Homo sapiens, UniProt O00629).
T2 construct: although the IBB region maintains its independence within the whole Impα3 in terms of conformation; His-tag (N); made in house; host or cells: Escherichia coli BL21 (DE3)
T2 sequence (O00629 1-521): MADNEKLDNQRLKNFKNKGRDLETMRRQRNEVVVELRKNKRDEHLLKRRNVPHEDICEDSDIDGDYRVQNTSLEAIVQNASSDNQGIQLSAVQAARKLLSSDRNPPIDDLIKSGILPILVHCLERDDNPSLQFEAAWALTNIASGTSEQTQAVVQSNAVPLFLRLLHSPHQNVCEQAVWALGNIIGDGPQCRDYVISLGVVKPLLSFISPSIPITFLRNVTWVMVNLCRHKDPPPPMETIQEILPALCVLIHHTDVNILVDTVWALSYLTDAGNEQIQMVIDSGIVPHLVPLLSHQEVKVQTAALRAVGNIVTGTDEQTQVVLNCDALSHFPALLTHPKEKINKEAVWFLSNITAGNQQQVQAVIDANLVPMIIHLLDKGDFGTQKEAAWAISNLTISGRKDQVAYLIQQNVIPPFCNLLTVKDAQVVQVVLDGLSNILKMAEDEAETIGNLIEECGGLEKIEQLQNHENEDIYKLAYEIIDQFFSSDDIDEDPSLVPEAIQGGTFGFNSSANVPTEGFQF
Briefly: ITC binding of NLS-NUPR1 peptides / NUPR1 to Impα3. To be noted: for ΔH (binding enthalpy), Impα3 / −TΔS (entropic contribution), Impα3 / n (stoichiometry; fraction of binding-competent protein), Impα3 / Kd: ITC, 298 K; for ΔH (binding enthalpy), Impα3 / −TΔS (entropic contribution), Impα3 / Kd: Tris 50 mM pH 8; for ΔH (binding enthalpy), Impα3: absolute error 0.5 kcal/mol; for −TΔS (entropic contribution), Impα3: calculated from Kd and ΔH, absolute error 0.7 kcal/mol; for n (stoichiometry; fraction of binding-competent protein), Impα3: absolute error 0.2, value in parenthesis = fixed in the fit due to low affinity; for Decrease of the affinity for Impα3 relative to wt peptide: from ITC Kd values; for Kd: importin 10–20 μM in cell, peptide 150–300 μM in syringe, 1:1 model, at least duplicates, relative error 30%, read-out: Kd (dissociation constant), Impα3. The procedure: as §1

SMILES strings stand for the structures. Where a SMILES comes first, the peptide text is derived from it. [ ]: non-standard residue; d: D form. pT = C[C@@H](OP(=O)(O)O)[C@H](N)C(=O)O

Take `CC(=O)N[C@@H](Cc1ccc(O)cc1)C(=O)N[C@H](C(=O)N[C@@H](CC(N)=O)C(=O)N[C@@H](CCCNC(=N)N)C(=O)N1CCC[C@H]1C(=O)N[C@@H](CO)C(=O)N1CCC[C@H]1C(=O)NCC(=O)NCC(=O)N[C@@H](Cc1c[nH]cn1)C(=O)N[C@@H](CCC(=O)O)C(=O)N[C@@H](CCCNC(=N)N)C(=O)N[C@@H](C)C(=O)N[C@@H](CC(C)C)C(=O)N[C@H](C(=O)N[C@H](C(=O)N[C@@H](CCCCN)C(=O)N[C@@H](CC(C)C)C(=O)N[C@@H](CCC(N)=O)C(=O)N[C@@H](CC(N)=O)C(=O)N[C@@H](CO)C(=O)N[C@@H](CCC(=O)O)C(N)=O)[C@@H](C)O)C(C)C)[C@@H](C)O` [K65A] (Ac-YTNRPSPGGHERALVTKLQNSE-NH2): in series [1] (Tris 50 mM pH 8), the “ΔH (binding enthalpy), ΔImpα3” value was -10.2 kcal/mol and the “−TΔS (entropic contribution), ΔImpα3” value is 2.6 kcal/mol. In series [1], the “n (stoichiometry; fraction of binding-competent protein), ΔImpα3” value was 1.4. In addition, in series [2], the “D, translational diffusion coefficient” value is reported as 1.94 ± 0.08 cm^2 s^−1 × 10^6 and the “Rh, hydrodynamic radius from D” value worked out at 11 ± 1 Å. Besides, in series [3], the “ΔH (binding enthalpy), Impα3” value is -2.8 kcal/mol; the “−TΔS (entropic contribution), Impα3” value was -4.6 kcal/mol; the “n (stoichiometry; fraction of binding-competent protein), Impα3” value is listed as 1.4; the “Decrease of the affinity for Impα3 relative to wt peptide” value was “two-fold”.

On to `CC(=O)N[C@@H](Cc1ccc(O)cc1)C(=O)N[C@H](C(=O)N[C@@H](CC(N)=O)C(=O)N[C@@H](CCCNC(=N)N)C(=O)N1CCC[C@H]1C(=O)N[C@@H](CO)C(=O)N1CCC[C@H]1C(=O)NCC(=O)NCC(=O)N[C@@H](Cc1c[nH]cn1)C(=O)N[C@@H](CCC(=O)O)C(=O)N[C@@H](CCCNC(=N)N)C(=O)N[C@@H](CCCCN)C(=O)N[C@@H](CC(C)C)C(=O)N[C@H](C(=O)N[C@H](C(=O)N[C@@H](C)C(=O)N[C@@H](CC(C)C)C(=O)N[C@@H](CCC(N)=O)C(=O)N[C@@H](CC(N)=O)C(=O)N[C@@H](CO)C(=O)N[C@@H](CCC(=O)O)C(N)=O)[C@@H](C)O)C(C)C)[C@@H](C)O` [K69A] (Ac-YTNRPSPGGHERKLVTALQNSE-NH2), for which, in series [1] (Tris 50 mM pH 8), the “ΔH (binding enthalpy), ΔImpα3” value is -21.3 kcal/mol and the “−TΔS (entropic contribution), ΔImpα3” value is listed as 14.3 kcal/mol. In addition, the “n (stoichiometry; fraction of binding-competent protein), ΔImpα3” value in series [1] was 1.4. In series [2], the “D, translational diffusion coefficient” value is given as 1.79 ± 0.06 cm^2 s^−1 × 10^6 and the “Rh, hydrodynamic radius from D” value came to 12 ± 2 Å. In addition, in series [3], the “ΔH (binding enthalpy), Impα3” value was -10.8 kcal/mol; the “−TΔS (entropic contribution), Impα3” value is 4.0 kcal/mol; the “n (stoichiometry; fraction of binding-competent protein), Impα3” value turned out to be 1.3; the “Decrease of the affinity for Impα3 relative to wt peptide” value was “six-fold”.

As to `CC(=O)N[C@@H](Cc1ccc(O)cc1)C(=O)N[C@H](C(=O)N[C@@H](CC(N)=O)C(=O)N[C@@H](CCCNC(=N)N)C(=O)N1CCC[C@H]1C(=O)N[C@@H](CO)C(=O)N1CCC[C@H]1C(=O)NCC(=O)NCC(=O)N[C@@H](Cc1c[nH]cn1)C(=O)N[C@@H](CCC(=O)O)C(=O)N[C@@H](CCCNC(=N)N)C(=O)N[C@@H](CCCCN)C(=O)N[C@@H](CC(C)C)C(=O)N[C@H](C(=O)N[C@@H](CCC(=O)O)C(=O)N[C@@H](C)C(=O)N[C@@H](CC(C)C)C(=O)N[C@@H](CCC(N)=O)C(=O)N[C@@H](CC(N)=O)C(=O)N[C@@H](CO)C(=O)N[C@@H](CCC(=O)O)C(N)=O)C(C)C)[C@@H](C)O` [T68EK69A] (Ac-YTNRPSPGGHERKLVEALQNSE-NH2), in series [1] (Tris 50 mM pH 8), the “ΔH (binding enthalpy), ΔImpα3” value is -21.2 kcal/mol and the “−TΔS (entropic contribution), ΔImpα3” value is listed as 14.7 kcal/mol. Besides, in series [1] (Tris 50 mM pH 8, importin 10–20 μM in cell, peptide 150–300 μM in syringe, 1:1 model, at least duplicates, relative error 30%, read-out: Kd (dissociation constant), ΔImpα3), the Kd turned out to be 17 µM. For the same compound, in series [2], the “D, translational diffusion coefficient” value was 1.87 ± 0.08 cm^2 s^−1 × 10^6 and the “Rh, hydrodynamic radius from D” value is 11 ± 1 Å. In series [3], the “ΔH (binding enthalpy), Impα3” value was -7.5 kcal/mol; the “−TΔS (entropic contribution), Impα3” value is on record as 1.0 kcal/mol; the dissociation constant Kd was 17 µM.

`CC(=O)N[C@@H](Cc1ccc(O)cc1)C(=O)N[C@H](C(=O)N[C@@H](CC(N)=O)C(=O)N[C@@H](CCCNC(=N)N)C(=O)N1CCC[C@H]1C(=O)N[C@@H](CO)C(=O)N1CCC[C@H]1C(=O)NCC(=O)NCC(=O)N[C@@H](Cc1c[nH]cn1)C(=O)N[C@@H](CCC(=O)O)C(=O)N[C@@H](CCCNC(=N)N)C(=O)N[C@@H](CCCCN)C(=O)N[C@@H](CC(C)C)C(=O)N[C@H](C(=O)N[C@@H](CCC(=O)O)C(=O)N[C@@H](CCCCN)C(=O)N[C@@H](CC(C)C)C(=O)N[C@@H](CCC(N)=O)C(=O)N[C@@H](CC(N)=O)C(=O)N[C@@H](CO)C(=O)N[C@@H](CCC(=O)O)C(N)=O)C(C)C)[C@@H](C)O` [T68E] (Ac-YTNRPSPGGHERKLVEKLQNSE-NH2): in series [1] (Tris 50 mM pH 8), the “ΔH (binding enthalpy), ΔImpα3” value was -17.5 kcal/mol and the “−TΔS (entropic contribution), ΔImpα3” value is listed as 10.8 kcal/mol. In series [2], the “D, translational diffusion coefficient” value was 2.17 ± 0.06 cm^2 s^−1 × 10^6 and the “Rh, hydrodynamic radius from D” value was 10 ± 1 Å. Moreover, in series [3], the “ΔH (binding enthalpy), Impα3” value is -11.1 kcal/mol and the “−TΔS (entropic contribution), Impα3” value is 4.7 kcal/mol.

With `CC(=O)N[C@@H](Cc1ccc(O)cc1)C(=O)N[C@H](C(=O)N[C@@H](CC(N)=O)C(=O)N[C@@H](CCCNC(=N)N)C(=O)N1CCC[C@H]1C(=O)N[C@@H](CO)C(=O)N1CCC[C@H]1C(=O)NCC(=O)NCC(=O)N[C@@H](Cc1c[nH]cn1)C(=O)N[C@@H](CCC(=O)O)C(=O)N[C@@H](CCCNC(=N)N)C(=O)N[C@@H](CCCCN)C(=O)N[C@@H](CC(C)C)C(=O)N[C@H](C(=O)N[C@H](C(=O)N[C@@H](CCCCN)C(=O)N[C@@H](CC(C)C)C(=O)N[C@@H](CCC(N)=O)C(=O)N[C@@H](CC(N)=O)C(=O)N[C@@H](CO)C(=O)N[C@@H](CCC(=O)O)C(N)=O)[C@@H](C)OP(=O)(O)O)C(C)C)[C@@H](C)O` [pT68] (Ac-YTNRPSPGGHERKLV[pT]KLQNSE-NH2), in series [1] (Tris 50 mM pH 8), the “ΔH (binding enthalpy), ΔImpα3” value was -28.2 kcal/mol and the “−TΔS (entropic contribution), ΔImpα3” value was 22.0 kcal/mol. Also, in series [2], the “D, translational diffusion coefficient” value turned out to be 1.89 ± 0.08 cm^2 s^−1 × 10^6 and the “Rh, hydrodynamic radius from D” value came to 11 ± 1 Å. For the same compound, in series [3], the “ΔH (binding enthalpy), Impα3” value is -14.8 kcal/mol and the dissociation constant Kd was 27 µM.

(Values after publication PMC7565984, “A Phosphorylation-Induced Switch in the Nuclear Localization Sequence of the Intrinsically Disordered NUPR1 Hampers Binding to Importin” (Biomolecules, 2020).)
